Reference: ChEMBL document CHEMBL3593175, “Bicyclic [3.3.0]-Octahydrocyclopenta[c]pyrrolo Antagonists of Retinol Binding Protein 4: Potential Treatment of Atrophic Age-Related Macular Degeneration and Stargardt Disease” (J Med Chem, 2015)

Assays:
[1] = molecular target: T1, Retinol-binding protein 4 (Homo sapiens, UniProt P02753); assay: Displacement of [3H]-retinol from RBP4 (unknown origin) by scintillation proximity assay
[2] = molecular target: T1, Retinol-binding protein 4; assay: Inhibition of retinol-induced interaction of bacterially expressed MBP-tagged RBP4 (unknown origin) with Eu3+ cryptate labeled TTR by HTRF assay
[3] = Metabolic stability in human liver microsomes assessed as compound remaining at 10 uM after 30 mins; type: ADME; details: read-out: Stability
[4] = Metabolic stability in rat liver microsomes assessed as compound remaining at 10 uM after 30 mins; type: ADME; details: read-out: Stability

IC50 [1]: 57.4 nM
IC50 [2]: 140 nM
remaining at 0.5 h, 10 µM [3]: 80%
remaining at 0.5 h, 10 µM [4]: 76%
SMILES: Cc1cc(C(=O)O)nc(N2C[C@@H]3CN(c4ccccc4C(F)(F)F)C[C@@H]3C2)n1
